{
  "source": "patent US20250302834A1",
  "about": "“N-ALKYL-2-SUBSTITUTED ATP ANALOGUES FOR USE AS ANTIBACTERIAL AGENT” (UNIVERSITÉ DE LIÈGE, priority 2022, published 2025)",
  "key": {"[1]": {"test_system": "JE2 S. aureus", "test": "Bacterial growth curve", "format": "cell-based, Staphylococcus aureus", "conditions": "1 μg/ml, 20 μg/ml and 40 μg/ml, 7 hours, OD 595 nm (FIG. 7)", "protocol": "(§1) A bacterial growth curve and metabolic activity profile was obtained of exponential phase JE2 bacteria following treatment with different concentrations of cangrelor 1 μg/ml, 20 μg/ml and 40 μg/ml. The bacterial growth curve was obtained via a kinetic reading using a spectrophotometer, reading every 10 minutes for 7 hours at an optical density of 595 nm with continuous shaking. The metabolic activity profile was obtained using a Calscreener™ (Symcel), which measures the metabolic response over time (15 hours) in presence of the different concentrations of cangrelor. […] While cangrelor cannot inhibit the bacterial growth of JE2, it can inhibit virulence factors production by this strain upon treatment using a clinically relevant dose of 1 μg/ml."}, "[2]": {"test_system": "methicillin-resistant JE2 (USA300) Staphylococcus aureus strain", "test": "Haemolytic activity of culture supernatant on human red blood cells, JE2 strain", "format": "cell-based", "conditions": "JE2 (USA300) grown with 1 μg/mL up to stationary phase; supernatant on red blood cells 30 minutes", "protocol": "(§2) Staphylococcus aureus strains included previously characterized infective endocarditis (IE) clinical isolate (Liesenborghs L, Meyers S, Lox M, Criel M, Claes J, Peetermans M, Trenson S, Vande Velde G, Vanden Berghe P, Baatsen P, et al. Staphylococcus aureus endocarditis: distinct mechanisms of bacterial adhesion to damaged and inflamed heart valves. Eur Heart J 2019; 40:3248-3259) or JE2 (USA300 MRSA). Bacteria were grown in Tryptic soy broth (TSB, Sigma) under agitation (200 rpm) at 37° C. Prior to all experiments, a single colony from TSA plates was used to inoculate 4 mL of TSB in 15-mL polystyrene tubes and bacteria were grown overnight. Liquid cultures were then diluted 100-fold in 20 mL of fresh TSB and aliquoted in new tubes. For tetrasodium cangrelor treatment, different concentrations of the drug were added to the corresponding tubes. Tetrasodium cangrelor was dissolved in the culture medium, i.e. Tryptic soy broth which comprises proteins and nutrients for growing bacteria, more particularly: casein, soya peptone, sodium chloride, dipotassium phosphate, dextrose, water. […]\n(§3) Freshly drawn citrate anticoagulated blood from healthy volunteers was centrifugated for 15 minutes at 1,000×g. […] Haemolytic activity was determined in supernatants by measuring the absorbance at 570 nm in a spectrophotometer. […]"}, "[3]": {"test_system": "Staphylococcus aureus IE clinical isolate", "test": "Staphyloxanthin production, IE strain", "format": "cell-based", "conditions": "IE strain grown with 0.5 μg/mL up to exponential phase (FIG. 3)", "protocol": "as §2\n(§4) Bacteria pellets from overnight culture were resuspended in 400 μL methanol and incubated for 30 minutes at 37° C. under gentle agitation on a table shaker. […] Pigment intensity in supernatants was analyzed by measuring the absorbance at 470 nm. […]"}, "[4]": {"test_system": "JE2 S. aureus", "test": "Bacterial adhesion to Von Willebrand factor under flow", "format": "cell-based, Staphylococcus aureus", "conditions": "JE2 grown with 1 μg/ml; shear rate 1000 s^-1 for 10 minutes (FIG. 5)", "protocol": "Staphylococcus aureus JE2 (USA300 MRSA) in exponential growth phase, non-treated or treated with cangrelor at 1 μg/ml were stained with 30 μg/ml 5(6)-Carboxyfluorescein N-hydroxysuccinimide ester (Sigma-Aldrich) in phosphate-buffered saline (PBS) for 30 minutes at room temperature on a shaker. After incubation, bacteria were centrifuged for 5 minutes at 14,000×g and the supernatant was removed. Next, a washing step was performed by resuspending the bacteria in PBS and removing PBS after centrifugation (5 minutes at 14,000×g). The bacterial pellet was then resuspended in 100 μl of 6% bovine serum albumin (BSA). The stained bacteria were kept on ice until further use in the Von Willebrand factor (VWF) adhesion assay and fibrinogen (Fg) adhesion assay. […]\nAfter perfusion, the coverslip was removed from the system and washed with PBS, followed by a fixation step with 4% paraformaldehyde (PFA, miliporefore, Merck) for 10 minutes. […] Confocal microscopy was performed at a 40× magnification and fluorescence intensity was measured with QuPath software (Bankhead, P. et al. QuPath: Open source software for digital pathology image analysis. Sci. Rep. 7, 1-7 (2017)). A quantification of bacteria adhesion to VWF was determined by determining the percentage of positive pixels, corresponding to the fluorescent signal and bacterial adhesion."}, "[5]": {"test_system": "JE2 S. aureus", "test": "Staphyloxanthin production, JE2 strain", "format": "cell-based, Staphylococcus aureus", "conditions": "1.0 μg/ml (FIG. 4)", "protocol": "as §2, §4"}, "[6]": {"test_system": "JE2 S. aureus", "test": "Bacterial adhesion to fibrinogen", "format": "cell-based, Staphylococcus aureus", "conditions": "JE2 grown with 1 μg/ml (FIG. 6)", "protocol": "Staphylococcus aureus JE2 (USA300 MRSA) in exponential growth phase, non-treated or treated with cangrelor at 1 μg/ml were stained with 30 μg/ml 5(6)-Carboxyfluorescein N-hydroxysuccinimide ester (Sigma-Aldrich) in phosphate-buffered saline (PBS) for 30 minutes at room temperature on a shaker. After incubation, bacteria were centrifuged for 5 minutes at 14,000×g and the supernatant was removed. Next, a washing step was performed by resuspending the bacteria in PBS and removing PBS after centrifugation (5 minutes at 14,000×g). The bacterial pellet was then resuspended in 100 μl of 6% bovine serum albumin (BSA). The stained bacteria were kept on ice until further use in the Von Willebrand factor (VWF) adhesion assay and fibrinogen (Fg) adhesion assay.\n96-well plates (cellstar, greiner) were coated with human plasma fibrinogen (Fg, Merck) for 24 hours at room temperature, followed by a washing step with PBS. Next, a blocking step with 2% BSA for 1 hour was done followed by a wash step with PBS. Labelled bacteria in exponential phase were then diluted in TSB medium to obtain 10^9 CFU/ml of labelled bacteria. […] Bacterial adhesion was then quantified using a spectrophotometer (multi-mode microplate reader FilterMax F5, molecular devices) Ex.:485 nm and em.:535 nm, a surface scan of the wells was performed. […]"}, "[7]": {"test_system": "JE2 S. aureus", "test": "Bacterial metabolic activity (Calscreener)", "format": "cell-based, Staphylococcus aureus", "conditions": "1 μg/ml, 20 μg/ml and 40 μg/ml, 15 hours (FIG. 8)", "protocol": "as §1"}, "[8]": {"conditions": "general statement, no test described; cited from earlier work"}, "[9]": {"test_system": "Staphylococcus aureus IE clinical isolate", "test": "Haemolytic activity of culture supernatant on human red blood cells, IE strain", "format": "cell-based", "conditions": "IE strain grown with 0.5 μg/mL up to exponential phase; supernatant on red blood cells 30 minutes", "protocol": "as §2, §3"}, "[10]": {"conditions": "intravenous bolus (30 μg/kg) followed by 4-μg/kg/min infusion; cited from earlier work"}},
  "data": [
    {"molecule": "CSCCNc1nc(SCCC(F)(F)F)nc2c1ncn2[C@@H]1O[C@H](COP(=O)(O)OP(=O)(O)C(Cl)(Cl)P(=O)(O)O)[C@@H](O)[C@H]1O", "note": "[cangrelor]", "values": [
      {"measurement": "bacterial growth (AUC of growth curve) as compared to vehicle control", "setting": "[1]", "value": "could not affect"},
      {"measurement": "loss of supernatant haemolytic activity as compared to vehicle control (set to 100%)", "setting": "[2]", "value": "complete loss"},
      {"measurement": "loss of bacteria staphyloxanthin production as compared to vehicle control (set to 100%)", "setting": "[3]", "value": 90, "unit": "%"},
      {"measurement": "bacterial adhesion to Von Willebrand factor under flow as compared to vehicle control", "setting": "[4]", "value": "reduction"},
      {"measurement": "loss of bacteria staphyloxanthin production as compared to vehicle control (set to 100%)", "setting": "[5]", "value": 90, "unit": "%"},
      {"measurement": "bacterial adhesion to fibrinogen as compared to vehicle control", "setting": "[6]", "value": "reduction"},
      {"measurement": "bacterial metabolic activity as compared to vehicle control", "setting": "[7]", "value": "could not affect"}
    ]},
    {"molecule": "CCCSc1nc(N[C@@H]2C[C@H]2c2ccc(F)c(F)c2)c2nnn([C@@H]3C[C@H](OCCO)[C@@H](O)[C@H]3O)c2n1", "note": "[Ticagrelor]", "values": [
      {"measurement": "solubility in an aqueous environment or medium", "setting": "[8]", "value": "generally not soluble"}
    ]},
    {"molecule": "CSCCNc1nc(SCCC(F)(F)F)nc2c1ncn2[C@@H]1O[C@H](COP(=O)(O)OP(=O)(O)C(Cl)(Cl)P(=O)(O)O)C(O)C1O", "note": "(stereo partly shown) [tetrasodium cangrelor]", "values": [
      {"measurement": "loss of supernatant haemolytic activity as compared to vehicle control (set to 100%)", "setting": "[9]", "value": 90, "unit": "%"},
      {"measurement": "steady state concentration of the drug reached in patient", "setting": "[10]", "value": 0.5, "unit": "µg/mL"}
    ]}
  ]
}
